# Data as given in ChEMBL document CHEMBL5108000, “Design and synthesis of novel indole and indazole-piperazine pyrimidine derivatives with anti-inflammatory and neuroprotective activities for ischemic stroke treatment” (Eur J Med Chem, 2022).
# Activity calls are given as the source filed them. The rule behind the calls is not given here.
# Assays:
# BV-2 [1] = assay: Neuroprotective activity against in OGD/R-induced mouse BV-2 cell injury assessed as cell viability at 1 uM measured after 24 hrs by MTT assay; format: functional; conditions: read-out: Activity
# BV-2 [2] = assay: Neuroprotective activity against in OGD/R-induced mouse BV-2 cell injury assessed as cell viability at 0.1 uM measured after 24 hrs by MTT assay; format: functional; conditions: read-out: Activity
# BV-2 [3] = assay: Neuroprotective activity against in OGD/R-induced mouse BV-2 cell injury assessed as cell viability at 10 uM measured after 24 hrs by MTT assay; format: functional; conditions: read-out: Activity
# BV-2 [4] = assay: Antiinflammatory activity in LPS-stimulated mouse BV-2 cells assessed as inhibition of IL-1beta release at 10 uM and measured after 8 hrs by ELISA; format: functional, cell-based
# BV-2 [5] = assay: Antiinflammatory activity in LPS-stimulated mouse BV-2 cells assessed as inhibition of IL-6 release at 10 uM and measured after 8 hrs by ELISA; format: functional
# BV-2 [6] = assay: Antiinflammatory activity in LPS-stimulated mouse BV-2 cells assessed as inhibition of TNF-alpha release at 10 uM and measured after 8 hrs by ELISA; format: functional, cell-based
# Mus musculus [7] = assay: Antiinflammatory activity in LPS-induced neuroinflammatory model of SPF male mouse assessed as TNF-alpha level at 20 mg/kg, iv administered once 6 hrs after LPS administration and measured by ELISA; format: functional
# Mus musculus [8] = assay: Antiinflammatory activity in LPS-induced neuroinflammatory model of SPF male mouse assessed as IL1-beta level at 20 mg/kg, iv administered once 6 hrs after LPS administration and measured by ELISA; format: functional
# Rattus norvegicus = assay: Neuroprotective activity in SPF Sprague-Dawley rat model of middle cerebral artery occlusion-induced ischemia-reperfusion injury assessed as decrease in neurological deficit score at 20 mg/kg, iv administered once a day; format: functional, organism-based
# [9] = Inhibition of soybean 5-LOX; design: species or system Glycine max
# [10] = biological target: Prostaglandin G/H synthase 1 (Homo sapiens, UniProt P23219); assay: Inhibition of COX-1 (unknown origin) using arachidonic acid as substrate and measured by fluorometric assay
# Sequence of Prostaglandin G/H synthase 1 (P23219 whole entry): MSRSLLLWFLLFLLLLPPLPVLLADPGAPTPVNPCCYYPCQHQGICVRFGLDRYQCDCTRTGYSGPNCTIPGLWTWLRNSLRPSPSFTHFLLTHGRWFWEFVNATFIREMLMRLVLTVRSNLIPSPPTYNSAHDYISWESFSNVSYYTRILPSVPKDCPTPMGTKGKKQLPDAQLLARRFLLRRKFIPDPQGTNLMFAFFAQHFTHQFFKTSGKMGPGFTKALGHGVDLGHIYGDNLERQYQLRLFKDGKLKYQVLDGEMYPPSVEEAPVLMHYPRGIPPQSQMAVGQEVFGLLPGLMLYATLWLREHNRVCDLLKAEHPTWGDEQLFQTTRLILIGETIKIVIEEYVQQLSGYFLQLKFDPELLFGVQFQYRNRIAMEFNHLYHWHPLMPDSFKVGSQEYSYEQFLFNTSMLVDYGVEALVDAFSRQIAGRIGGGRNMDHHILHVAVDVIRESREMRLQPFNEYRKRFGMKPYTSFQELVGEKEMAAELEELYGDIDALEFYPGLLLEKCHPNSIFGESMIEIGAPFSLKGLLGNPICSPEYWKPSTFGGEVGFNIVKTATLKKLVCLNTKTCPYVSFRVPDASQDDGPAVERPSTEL
SMILES,viability at 1 µM (BV-2 [1]) [%],viability at 0.1 µM (BV-2 [2]) [%],viability at 10 µM (BV-2 [3]) [%],also measured
O=C(c1cn(Cc2ccc(F)cc2)c2ccc(Cl)cc12)N1CCN(c2ncccn2)CC1,66.7,64.1,70.5,–
Cc1cc(-c2ccccc2)nnc1N1CCN(c2ncccn2)CC1 [MINOZAC FREE BASE],66.2,62.2,69.3,inhibition at 10 µM (BV-2 [4]): 28.7%; inhibition at 10 µM (BV-2 [5]): 29.3%; inhibition at 10 µM (BV-2 [6]): 31.9%
CCCCC1OC(=O)c2ccccc21 (stereo not drawn) [RAC-3-N-BUTYLPHTHALIDE],–,–,–,Activity (Mus musculus [7]): 80.12 pg/g; Activity (Mus musculus [8]): 46.51 pg/g; Activity (Rattus norvegicus): Active
COc1cccc(Cn2cc(C(=O)N3CCN(c4ncccn4)CC3)c3ccccc32)c1,72.5,63.7,75.8,–
O=C(c1cc2cc(Cl)ccc2n1Cc1ccc(Cl)cc1Cl)N1CCN(c2ncccn2)CC1,65.5,60.1,69.9,–
O=C(c1cn(Cc2ccc(Cl)cc2Cl)c2ccc(Cl)cc12)N1CCN(c2ncccn2)CC1,64.8,63.6,67.8,–
CC(c1cc2ccccc2s1)N(O)C(N)=O (configuration not stated) [ZILEUTON],–,–,–,IC50 [9]: 139 nM
O=C(c1cc2cc(Cl)ccc2n1Cc1ccc(Cl)cc1)N1CCN(c2ncccn2)CC1,67.9,61.8,69.8,–
O=C(c1cc2cc(Cl)ccc2n1Cc1ccc(F)cc1)N1CCN(c2ccccc2)CC1,–,–,–,IC50 [9]: 83.5 nM; IC50 [10]: 195 nM
O=C(c1cn(Cc2ccc(F)cc2)c2ccccc12)N1CCN(c2ncccn2)CC1,71.7,64.7,80.2,–
COc1ccc2c(c1)cc(C(=O)N1CCN(c3ncccn3)CC1)n2Cc1ccc(F)cc1,66.2,64.9,69.9,–
COc1ccc(Cn2c(C(=O)N3CCN(c4ncccn4)CC3)cc3cc(OC)ccc32)cc1,68.9,63.2,71.3,–
COc1cccc(Cn2c(C(=O)N3CCN(c4ncccn4)CC3)cc3cc(Cl)ccc32)c1,67.2,64.1,73.1,–
COc1ccc(Cn2c(C(=O)N3CCN(c4ncccn4)CC3)cc3ccccc32)cc1,69.9,63,78.9,–
COc1ccccc1Cn1c(C(=O)N2CCN(c3ncccn3)CC2)cc2cc(Cl)ccc21,70.2,65.4,74.6,–
O=C(c1cc2ccccc2n1Cc1cccc(F)c1)N1CCN(c2ncccn2)CC1,68.5,66.1,78.5,–
O=C(c1cc2cc(Cl)ccc2n1Cc1cccc(F)c1)N1CCN(c2ncccn2)CC1,67,63.2,67.8,–
O=C(c1nn(Cc2ccc(Cl)cc2Cl)c2ccccc12)N1CCN(c2ncccn2)CC1,68.6,64.4,72,–
CC1=NN(c2ccccc2)C(=O)C1 [EDARAVONE],76.8,69.7,83,–
